Measured values reported in patent US9771341B2, “Piperazine carbamates and methods of making and using same” (Abide Therapeutics, Inc., priority 2015, dated 2017).

Columns and labels:
FAAH [1] = biological target: T1, FAAH (Mus musculus, UniProt O08914); test: In vitro competitive activity-based protein profiling (mouse), FAAH; format: biochemical; conditions: for inhibition at 1 µM: mouse proteome, in vitro; for IC50: mouse brain membrane fraction or cell lysates, 30 min preincubation at 37° C, FP-Rh probe
T1 construct: Proteomes (mouse brain membrane fraction or cell lysates); from tissue; host or cells: mouse brain membrane fraction (or unspecified cell lysates)
T1 sequence (O08914 1-579): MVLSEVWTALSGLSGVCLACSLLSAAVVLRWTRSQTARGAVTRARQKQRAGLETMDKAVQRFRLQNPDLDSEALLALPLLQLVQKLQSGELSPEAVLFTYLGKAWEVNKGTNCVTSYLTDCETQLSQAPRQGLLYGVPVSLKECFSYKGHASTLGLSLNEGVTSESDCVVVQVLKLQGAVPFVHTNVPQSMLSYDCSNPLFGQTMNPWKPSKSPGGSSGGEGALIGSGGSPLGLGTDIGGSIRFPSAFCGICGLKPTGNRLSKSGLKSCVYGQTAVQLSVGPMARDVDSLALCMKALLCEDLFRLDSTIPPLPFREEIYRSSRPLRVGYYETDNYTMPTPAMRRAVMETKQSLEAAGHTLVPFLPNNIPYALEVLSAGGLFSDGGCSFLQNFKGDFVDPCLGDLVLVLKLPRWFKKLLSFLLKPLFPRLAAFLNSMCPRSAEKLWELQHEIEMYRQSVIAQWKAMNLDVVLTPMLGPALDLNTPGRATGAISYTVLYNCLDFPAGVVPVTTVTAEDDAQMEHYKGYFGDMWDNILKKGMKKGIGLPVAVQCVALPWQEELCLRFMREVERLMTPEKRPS
In short: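 Mouse brain membrane fraction or cell lysates (1.0 mg/mL protein) preincubated with inhibitors 30 min at 37° C, then FP-Rh probe 30 min at 37° C. SDS-PAGE fluorescence band intensity gave FAAH activity.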

MAGL [2] = biological target: T2, MAGL (Mus musculus, UniProt O35678); test: Mouse brain proteomes from inhibitor treated mice, MAGL; format: in vivo; conditions: 5 mg/kg oral gavage, C57Bl/6J mice, brain proteome 4 h after administration
T2 construct: Proteomes (mouse brain membrane fraction or cell lysates); from tissue; host or cells: mouse brain membrane fraction (or unspecified cell lysates)
T2 sequence (O35678 1-303): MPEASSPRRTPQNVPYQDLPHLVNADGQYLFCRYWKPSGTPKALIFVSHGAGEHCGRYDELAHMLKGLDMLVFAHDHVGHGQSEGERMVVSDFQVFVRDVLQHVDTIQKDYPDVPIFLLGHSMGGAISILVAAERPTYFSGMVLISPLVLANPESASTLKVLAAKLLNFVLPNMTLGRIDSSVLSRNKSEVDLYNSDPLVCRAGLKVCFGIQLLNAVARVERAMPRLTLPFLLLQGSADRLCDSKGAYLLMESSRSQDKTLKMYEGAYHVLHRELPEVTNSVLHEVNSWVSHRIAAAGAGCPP
Procedure: (§1) Preparation of Mouse Brain Proteomes from Inhibitor Treated Mice.
(§2) Inhibitors were administered to wild-type C57Bl/6J by oral gavage in a vehicle of polyethylene glycol.

ABHD6 [3] = biological target: T3, ABHD6 (Mus musculus, UniProt Q8R2Y0); test: In vitro competitive activity-based protein profiling (mouse), ABHD6; format: biochemical; conditions: for inhibition at 1 µM: mouse proteome, in vitro, read-out: % Inhibition at 1 μM ABHD6; for IC50: mouse brain membrane fraction or cell lysates, 30 min preincubation at 37° C, FP-Rh probe
T3 construct: Proteomes (mouse brain membrane fraction or cell lysates); from tissue; host or cells: mouse brain membrane fraction (or unspecified cell lysates)
T3 sequence (Q8R2Y0 1-336): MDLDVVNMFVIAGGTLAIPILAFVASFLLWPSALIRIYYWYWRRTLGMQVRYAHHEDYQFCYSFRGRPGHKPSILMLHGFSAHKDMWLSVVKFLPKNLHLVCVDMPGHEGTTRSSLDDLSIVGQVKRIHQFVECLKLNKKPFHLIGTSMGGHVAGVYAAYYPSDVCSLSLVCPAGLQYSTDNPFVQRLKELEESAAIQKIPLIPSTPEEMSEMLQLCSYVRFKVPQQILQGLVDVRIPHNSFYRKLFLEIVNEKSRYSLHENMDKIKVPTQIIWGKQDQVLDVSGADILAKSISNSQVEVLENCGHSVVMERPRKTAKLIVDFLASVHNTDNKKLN
Procedure: (§3) In Vitro Competitive Activity-Based Protein Profiling (Mouse).
(§4) Proteomes (mouse brain membrane fraction or cell lysates) (50 μL, 1.0 mg/mL total protein concentration) were preincubated with varying concentrations of inhibitors at 37° C. After 30 min, FP-Rh (1.0 μL, 50 μM in DMSO) was added and the mixture was incubated for another 30 min at 37° C. Reactions were quenched with SDS loading buffer (50 μL-4×) and run on SDS-PAGE.

ABHD6 [4] = biological target: T3, ABHD6; test: Mouse brain proteomes from inhibitor treated mice, ABHD6; format: in vivo; conditions: 5 mg/kg oral gavage, C57Bl/6J mice, brain proteome 4 h after administration
Procedure: as §1, §2

MAGL [5] = biological target: T2, MAGL; test: In vitro competitive activity-based protein profiling (mouse), MAGL; format: biochemical; conditions: for inhibition at 1 µM: mouse proteome, in vitro, read-out: % Inhibition at 1 μM MAGL; for IC50: mouse brain membrane fraction or cell lysates, 30 min preincubation at 37° C, FP-Rh probe
Procedure: as §3, §4

FAAH [6] = biological target: T1, FAAH; test: Mouse brain proteomes from inhibitor treated mice, FAAH; format: in vivo; conditions: 5 mg/kg oral gavage, C57Bl/6J mice, brain proteome 4 h after administration
Procedure: as §1
Inhibitors were administered to wild-type C57Bl/6J by oral gavage in a vehicle of polyethylene glycol. Each animal was sacrificed 4 h following administration and brain proteomes were prepared and analyzed according to previously established methods (See Niphakis, M. J., et al. (2011) ACS Chem. Neurosci. and Long, J. Z., et al. Nat. Chem. Biol. 5:37-44)

SMILES	inhibition at 1 µM (FAAH [1])	IC50 (FAAH [1])	inhibition at 5 mg/kg (MAGL [2])	inhibition at 1 µM (ABHD6 [3])	IC50 (ABHD6 [3])	inhibition at 5 mg/kg (ABHD6 [4])	inhibition at 1 µM (MAGL [5])	IC50 (MAGL [5])	inhibition at 5 mg/kg (FAAH [6])
O=C(OC(C(F)(F)F)C(F)(F)F)N1CCN(Cc2ccc(C(F)(F)F)cc2N2CC3CN(C4CC4)CC3C2)CC1 (stereo not drawn) [Example 65, 1,1,1,3,3,3-hexafluoropropan-2-yl 4-(2-(5-cyclopropylhexahydropyrrolo[3,4-c]pyrrol-2(1H)-yl)-4-(trifluoromethyl)benzyl)piperazine-1-carboxylate]	< 25%	> 1000 nM	< 25%	25 to 75%	> 1000 nM	< 25%	> 75%	< 100 nM	< 25%
O=C(O)C1CN(c2cc(C(F)(F)F)ccc2CN2CCN(C(=O)OC(C(F)(F)F)C(F)(F)F)CC2)CCO1 (stereo not drawn) [Example 75, 4-(2-((4-(((1,1,1,3,3,3-hexafluoropropan-2-yl)oxy)carbonyl)piperazin-1-yl)methyl)-5-(trifluoromethyl)phenyl)morpholine-2-carboxylic acid]	< 25%	> 1000 nM	< 25%	< 25%	> 1000 nM	< 25%	> 75%	< 100 nM	< 25%
O=C(O)[C@@H]1CCCN1c1cc(CN2CCN(C(=O)OC(C(F)(F)F)C(F)(F)F)CC2)cc(C(F)(F)F)c1 [Example 86, (3-((4-(((1,1,1,3,3,3-hexafluoropropan-2-yl)oxy)carbonyl)piperazin-1-yl)methyl)-5-(trifluoromethyl)phenyl)proline]	< 25%	> 1000 nM	> 75%	25 to 75%	100 to 1000 nM	> 75%	> 75%	100 to 1000 nM	< 25%

More lines, now with the values ahead:

inhibition at 1 µM (FAAH [1])	IC50 (FAAH [1])	inhibition at 5 mg/kg (MAGL [2])	inhibition at 1 µM (ABHD6 [3])	IC50 (ABHD6 [3])	inhibition at 5 mg/kg (ABHD6 [4])	inhibition at 1 µM (MAGL [5])	IC50 (MAGL [5])	inhibition at 5 mg/kg (FAAH [6])	SMILES
< 25%	> 1000 nM	> 75%	< 25%	> 1000 nM	< 25%	> 75%	< 100 nM	< 25%	O=C(OC(C(F)(F)F)C(F)(F)F)N1CCN(Cc2ccc(C(F)(F)F)cc2N2CCCC2CO)CC1 (stereo not drawn) [Example 71, 1,1,1,3,3,3-hexafluoropropan-2-yl 4-(2-(2-(hydroxymethyl)pyrrolidin-1-yl)-4-(trifluoromethyl)benzyl)piperazine-1-carboxylate]
< 25%	> 1000 nM	25 to 75%	< 25%	> 1000 nM	< 25%	> 75%	< 100 nM	< 25%	O=C(OC(C(F)(F)F)C(F)(F)F)N1CCN(Cc2ccc(C(F)(F)F)cc2N2CCC(CO)CC2)CC1 [Example 74, 1,1,1,3,3,3-hexafluoropropan-2-yl 4-(2-(4-(hydroxymethyl)piperidin-1-yl)-4-(trifluoromethyl)benzyl)piperazine-1-carboxylate]
